Test results: patent US10179771B2 (GALAPAGOS NV, priority 2014, dated 2019)

Key:
[1] = molecular target: T1, Recombinant human TYK2 catalytic domain (Homo sapiens, UniProt P29597); assay: TYK2 inhibition assay; type: biochemical
T1 construct: Recombinant human TYK2 catalytic domain (amino acids 871-1187; catalog number 08-147); purchased Carna biosciences 08-147
T1 sequence (P29597 871-1187): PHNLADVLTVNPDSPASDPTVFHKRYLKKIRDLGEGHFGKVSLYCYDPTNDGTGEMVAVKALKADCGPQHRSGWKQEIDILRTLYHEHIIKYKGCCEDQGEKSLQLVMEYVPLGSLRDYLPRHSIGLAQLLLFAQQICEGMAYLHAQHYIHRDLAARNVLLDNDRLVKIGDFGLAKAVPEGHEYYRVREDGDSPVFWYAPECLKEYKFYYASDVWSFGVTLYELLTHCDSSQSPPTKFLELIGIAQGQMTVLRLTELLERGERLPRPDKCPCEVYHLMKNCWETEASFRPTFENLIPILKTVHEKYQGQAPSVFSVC
Procedure: Recombinant human TYK2 catalytic domain (amino acids 871-1187; catalog number 08-147) was purchased from Carna biosciences. 5 ng of TYK2 was incubated with 12.5 μg polyGT substrate (Sigma catalog number P0275) in kinase reaction buffer (25 mM Hepes pH 7.2, 50 mM NaCl, 0.5 mM EDTA, 1 mM DTT, 5 mM MnCl2, 10 mM MgCl2, 0.1% Brij-35, 0.1 μM non-radioactive ATP, 0.125 μCi ^33P-gamma-ATP (GE Healthcare, catalog number AH9968) final concentrations) with or without 5 μL containing test compound or vehicle (DMSO, 1% final concentration), in a total volume of 25 μL, in a polypropylene 96-well plate (Greiner, V-bottom). After 90 min at 30° C., reactions were stopped by adding 25 μL/well of 150 mM phosphoric acid. All of the terminated kinase reaction was transferred to prewashed (75 mM phosphoric acid) 96 well filter plates (Perkin Elmer catalog number 6005177) using a cell harvester (Perkin Elmer). Plates were washed 6 times with 300 μL per well of a 75 mM phosphoric acid solution and the bottom of the plates was sealed. 40 μL/well of Microscint-20 was added, the top of the plates was sealed and readout was performed using the Topcount (Perkin Elmer). Kinase activity was calculated by subtracting counts per min (cpm) obtained in the presence of a positive control inhibitor (10 μM staurosporine) from cpm obtained in the presence of vehicle. The ability of a test compound to inhibit this activity was determined as: Percentage inhibition=((cpm determined for sample with test compound present−cpm determined for sample with positive control inhibitor) divided by (cpm determined in the presence of vehicle−cpm determined for sample with positive control inhibitor))*100.
(§1) Dose dilution series were prepared for the compounds enabling the testing of dose-response effects in the TYK2 assay and the calculation of the IC50 for each compound. Each compound was routinely tested at concentration of 20 μM followed by a 1/3 serial dilution, 8 points (20 μM-6.67 μM-2.22 μM-740 nM-247 nM-82 nM-27 nM-9 nM) in a final concentration of 1% DMSO. When potency of compound series increased, more dilutions were prepared and/or the top concentration was lowered (e.g. 5 μM, 1 μM).

[2] = molecular target: T2, Recombinant human JAK3 catalytic domain (Homo sapiens, UniProt P52333); assay: JAK3 inhibition assay; type: biochemical
T2 construct: Recombinant human JAK3 catalytic domain (amino acids 781-1124; catalog number PV3855); purchased Invitrogen PV3855
Procedure: Recombinant human JAK3 catalytic domain (amino acids 781-1124; catalog number PV3855) was purchased from Invitrogen. 0.5 ng JAK3 protein was incubated with 2.5 μg polyGT substrate (Sigma catalog number P0275) in kinase reaction buffer (25 mM Tris pH 7.5, 0.5 mM EGTA, 10 mM MgCl2, 2.5 mM DTT, 0.5 mM Na3VO4, 5 mM b-glycerolphosphate, 0.01% Triton X-100, 1 μM non-radioactive ATP, […] ^33P-gamma-ATP (GE Healthcare, catalog number AH9968) final concentrations) with or without 5 μL containing test compound or vehicle (DMSO, 1% final concentration), in a total volume of 25 μL, in a polypropylene 96-well plate (Greiner, V-bottom). After 45 min at 30° C., reactions were stopped by adding 25 μL/well of 150 mM phosphoric acid. All of the terminated kinase reaction was transferred to prewashed (75 mM phosphoric acid) 96 well filter plates (Perkin Elmer catalog number 6005177) using a cell harvester (Perkin Elmer). Plates were washed 6 times with 300 μL per well of a 75 mM phosphoric acid solution and the bottom of the plates was sealed. 40 μL/well of Microscint-20 was added, the top of the plates was sealed and readout was performed using the Topcount (Perkin Elmer). Kinase activity was calculated by subtracting counts per min (cpm) obtained in the presence of a positive control inhibitor (10 μM staurosporine) from cpm obtained in the presence of vehicle. The ability of a test compound to inhibit this activity was determined as:
[formula] • RFU test compound=RFU determined for sample with test compound present • RFU control=RFU determined for sample with positive control inhibitor • RFU vehicle=RFU determined in the presence of vehicle
as §1, with “JAK3” for “TYK2”, “1/5” for “1/3”, “10” for “8”, “points” for “points (20 μM-6.67 μM-2.22 μM-740 nM-247 nM-82 nM-27 nM-9 nM)”

[3] = Illustrative Compounds of the invention (Table XI)
[4] = Illustrative Compounds of the invention (Table IX)
[5] = Comparative Compounds (Table XII)
[6] = Comparative Compounds (Table X)

T2 sequence (P52333 781-1124): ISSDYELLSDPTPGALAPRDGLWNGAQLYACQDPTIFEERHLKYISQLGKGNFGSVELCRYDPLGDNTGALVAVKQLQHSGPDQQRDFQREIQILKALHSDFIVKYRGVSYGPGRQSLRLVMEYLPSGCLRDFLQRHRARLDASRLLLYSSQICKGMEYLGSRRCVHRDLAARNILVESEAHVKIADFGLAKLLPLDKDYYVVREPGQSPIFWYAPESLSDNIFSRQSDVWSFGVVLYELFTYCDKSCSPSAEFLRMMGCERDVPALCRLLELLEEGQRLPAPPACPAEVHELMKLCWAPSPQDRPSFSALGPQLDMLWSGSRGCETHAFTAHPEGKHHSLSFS

Row | SMILES | IC50 [1, 3] | IC50 [2, 4] | IC50 [1, 5] | IC50 [2, 6]
1 | CCc1cc(C#N)ccc1Oc1cc(NC(=O)[C@H]2C[C@H]2F)c2ncn(C)c2c1 [Cpd 10, (1R,2R)-N-[6-(4-cyano-2-ethyl-phenoxy)-1-methyl-benzimidazol-4-yl]-2-fluoro-cyclopropanecarboxamide] | 0.1 to 50 nM | 100 to 500 nM | – | –
2 | CCc1cc(C#N)cc(F)c1Nc1cc(NC(=O)C2CC2)c2ncn(C)c2c1 [Cpd 2, N-(6-(4-cyano-2-ethyl-6-fluorophenylamino)-1-methyl-1H-benzo[d]imidazol-4-yl)cyclopropanecarboxamide] | 0.1 to 50 nM | 0.1 to 50 nM | – | –
3 | CCc1cc(C#N)ncc1N(C)c1cc(NC(=O)OC)c2ncn(C)c2c1 [Cpd 4, methyl 6-((6-cyano-4-ethylpyridin-3-yl)(methyl)amino)-1-methyl-1H-benzo[d]imidazol-4-ylcarbamate] | 0.1 to 50 nM | 100 to 500 nM | – | –
4 | CCc1cc(C#N)ncc1Oc1cc(NC(=O)[C@H]2C[C@H]2F)c2ncn(C)c2c1 [Cpd 6, (1R,2R)-N-[6-[(6-cyano-4-ethyl-3-pyridyl)oxy]-1-methyl-benzimidazol-4-yl]-2-fluoro-cyclopropanecarboxamide] | 0.1 to 50 nM | > 500 nM | – | –
5 | CCc1cc(C#N)ncc1N(C)c1cc(NC(=O)[C@H]2C[C@H]2F)c2ncn(C)c2c1 [Cpd 8, (1R,2R)-N-(6-((6-cyano-4-ethylpyridin-3-yl)(methyl)amino)-1-methyl-1H-benzo[d]imidazol-4-yl)-2-fluorocyclopropanecarboxamide] | 0.1 to 50 nM | 100 to 500 nM | – | –
6 | CNC(=O)Nc1cc(Oc2cnc(C#N)cc2C)cc2c1ncn2C | 0.1 to 50 nM | 100 to 500 nM | – | –
7 | CN(c1cc(NC(=O)[C@H]2C[C@H]2F)c2ncn(C)c2c1)c1c(F)cc(C#N)cc1Cl [Cpd 11, (1R,2R)-N-[6-(2-chloro-4-cyano-6-fluoro-N-methyl-anilino)-1-methyl-benzimidazol-4-yl]-2-fluoro-cyclopropanecarboxamide] | 0.1 to 50 nM | 100 to 500 nM | – | –
8 | CN(c1ccc2ncn(C)c2c1)c1ccc(C#N)cc1F [C, 3-fluoro-4-[methyl-(3-methylbenzimidazol-5-yl)amino]benzonitrile, reference compound] | – | – | > 500 nM | > 500 nM
9 | Cc1cc(C#N)ncc1N(C)c1cc(NC(=O)[C@H]2C[C@H]2F)c2ncn(C)c2c1 [Cpd 9, (1R,2R)-N-(6-((6-cyano-4-methylpyridin-3-yl)(methyl)amino)-1-methyl-1H-benzo[d]imidazol-4-yl)-2-fluorocyclopropanecarboxamide] | 0.1 to 50 nM | 100 to 500 nM | – | –

Further lines, results first:

Row | IC50 [1, 3] | IC50 [2, 4] | IC50 [1, 5] | IC50 [2, 6] | SMILES
10 | > 500 nM | > 500 nM | – | – | Cc1cc(C#N)ncc1Oc1cc(NC(=O)N2CC(O)C2)c2ncn(C)c2c1 [Cpd 36, N-[6-[(6-cyano-4-methyl-3-pyridyl)oxy]-1-methyl-benzimidazol-4-yl]-3-hydroxy-azetidine-1-carboxamide]
11 | – | – | > 500 nM | > 500 nM | CN(c1cc2c(cn1)ncn2C)c1ccc(C#N)cc1F [D, reference compound]
12 | 0.1 to 50 nM | 100 to 500 nM | – | – | CCc1cc(S(C)(=O)=O)ncc1N(C)c1cc(NC(=O)C2CC2)c2ncn(C)c2c1 [Cpd 18, N-[6-[(4-ethyl-6-methylsulfonyl-3-pyridyl)-methyl-amino]-1-methyl-benzimidazol-4-yl]cyclopropanecarboxamide]
13 | 0.1 to 50 nM | 50 to 100 nM | – | – | Cc1cc(C#N)nc(F)c1N(C)c1cc(NC(=O)[C@H]2C[C@H]2F)c2ncn(C)c2c1 [Cpd 21, (1R,2R)-N-[6-[(6-cyano-2-fluoro-4-methyl-3-pyridyl)-methyl-amino]-1-methyl-benzimidazol-4-yl]-2-fluoro-cyclopropanecarboxamide]
14 | 0.1 to 50 nM | 100 to 500 nM | – | – | CCS(=O)(=O)c1ccc(N(C)c2cc(NC(=O)[C@H]3C[C@H]3F)c3ncn(C)c3c2)c(C)c1 [Cpd 27, (1R,2R)-N-[6-(4-ethylsulfonyl-N,2-dimethyl-anilino)-1-methyl-benzimidazol-4-yl]-2-fluoro-cyclopropanecarboxamide]
15 | 0.1 to 50 nM | 100 to 500 nM | – | – | Cc1cc(S(C)(=O)=O)ccc1N(C)c1cc(NC(=O)[C@H]2C[C@H]2F)c2ncn(C)c2c1 [Cpd 26, (1R,2R)-N-[6-(N,2-dimethyl-4-methylsulfonyl-anilino)-1-methyl-benzimidazol-4-yl]-2-fluoro-cyclopropanecarboxamide]
16 | > 500 nM | > 500 nM | – | – | Cc1cc(C#N)ncc1Oc1cc(NC(=O)N2CCOCC2)c2ncn(C)c2c1 [Cpd 37, N-[6-[(6-cyano-4-methyl-3-pyridyl)oxy]-1-methyl-benzimidazol-4-yl]morpholine-4-carboxamide]
17 | 0.1 to 50 nM | 50 to 100 nM | – | – | Cc1cc(S(C)(=O)=O)cc(F)c1N(C)c1cc(NC(=O)[C@H]2C[C@H]2F)c2ncn(C)c2c1 [Cpd 16, (1R,2R)-2-fluoro-N-[6-(2-fluoro-N,6-dimethyl-4-methylsulfonyl-anilino)-1-methyl-benzimidazol-4-yl]cyclopropanecarboxamide]
18 | 0.1 to 50 nM | > 500 nM | – | – | Cc1cc(C#N)ncc1Oc1cc(NC(=O)[C@H]2C[C@H]2F)c2ncn(C)c2c1 [Cpd 20, (1R,2R)-N-[6-[(6-cyano-4-methyl-3-pyridyl)oxy]-1-methyl-benzimidazol-4-yl]-2-fluoro-cyclopropanecarboxamide]
19 | 0.1 to 50 nM | 100 to 500 nM | – | – | CN(c1cc(NC(=O)[C@H]2C[C@H]2F)c2ncn(C)c2c1)c1ccc(C#N)nc1F [Cpd 14, (1R,2R)-N-[6-[(6-cyano-2-fluoro-3-pyridyl)-methyl-amino]-1-methyl-benzimidazol-4-yl]-2-fluoro-cyclopropanecarboxamide]
20 | 0.1 to 50 nM | 100 to 500 nM | – | – | Cc1cc(F)ncc1N(C)c1cc(NC(=O)[C@H]2C[C@H]2F)c2ncn(C)c2c1 [Cpd 12, (1R,2R)-2-fluoro-N-[6-[(6-fluoro-4-methyl-3-pyridyl)-methyl-amino]-1-methyl-benzimidazol-4-yl]cyclopropanecarboxamide]
21 | 0.1 to 50 nM | 100 to 500 nM | – | – | CCc1cc(C(N)=O)ncc1N(C)c1cc(NC(=O)C2CC2)c2ncn(C)c2c1 [Cpd 24, 5-((4-(cyclopropanecarboxamido)-1-methyl-1H-benzo[d]imidazol-6-yl)(methyl)amino)-4-ethylpicolinamide]
22 | 100 to 500 nM | > 500 nM | – | – | Cc1cc(C#N)ncc1Oc1cc(N)c2ncn(C)c2c1 [Cpd 28, 5-(7-amino-3-methyl-benzimidazol-5-yl)oxy-4-methyl-pyridine-2-carbonitrile]
